According to PubChem BioAssay (NCI):
Several values for one entry are separate records, joined by “and”; a condition that tells them apart may be missing. Equal entries are not always repeated.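 Method: 48-hour compound exposure of cells in 96-well plates, five concentrations, linear interpolation of endpoints. Here, GI50 denotes the concentration required for 50% inhibition of growth. TGI denotes the concentration required for complete inhibition of growth.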

Assays:
Test in all cases: NCI anticancer screen, dose series, 48 h
OVCAR-5 ovarian = tested on: OVCAR-5 ovarian
OVCAR-3 ovarian = tested on: OVCAR-3 ovarian
SK-MEL-5 melanoma = tested on: SK-MEL-5 melanoma
MALME-3M melanoma = tested on: MALME-3M melanoma
MOLT-4 leukemia = tested on: MOLT-4 leukemia
UO-31 renal = tested on: UO-31 renal
A498 renal = tested on: A498 renal
UACC-62 melanoma = tested on: UACC-62 melanoma
NCI-H522 lung = tested on: NCI-H522 lung
HOP-92 NSCLC = tested on: HOP-92 NSCLC

Row | SMILES | TGI (OVCAR-5 ovarian) | TGI (OVCAR-3 ovarian) | TGI (SK-MEL-5 melanoma) | TGI (MALME-3M melanoma) | TGI (MOLT-4 leukemia) | TGI (UO-31 renal) | TGI (A498 renal) | TGI (UACC-62 melanoma) | TGI (NCI-H522 lung) | TGI (HOP-92 NSCLC) | GI50 (OVCAR-5 ovarian) | GI50 (SK-MEL-5 melanoma) | GI50 (MOLT-4 leukemia) | GI50 (HOP-92 NSCLC) | GI50 (UO-31 renal) | GI50 (A498 renal) | GI50 (UACC-62 melanoma) | GI50 (OVCAR-3 ovarian) | GI50 (MALME-3M melanoma) | GI50 (NCI-H522 lung)
1 | COc1cc2cnc3c4ccccc4ccc3c2cc1OC | > 100 µM | > 100 µM | > 100 µM | > 100 µM | > 100 µM | > 100 µM | > 100 µM | > 100 µM | > 100 µM | – | – | – | – | – | – | – | – | – | – | –
2 | CCN(CC)CC(=O)N1CCc2c([nH]c3ccccc23)C1c1cccnc1 (centres undefined) | > 100 µM | > 100 µM | > 100 µM | – | > 100 µM | > 100 µM | > 100 µM | > 100 µM | > 100 µM | > 100 µM | – | – | – | – | – | – | – | – | – | –
3 | Cn1c(/C(C#N)=C/c2ccc3ccccc3c2)cc2ccccc21 | > 100 µM | – | > 100 µM | – | > 100 µM | > 100 µM | 0.552 µM | > 100 µM | – | > 100 µM | 0.411 µM | 0.455 µM | 0.468 µM | 0.0395 µM | 0.157 µM | 0.0409 µM | 0.0425 µM | – | – | –
4 | CC(=O)N[C@H](C(=O)N[C@@H](CCCNC(=N)N)C(=O)N[C@@H](CCCCN)C(=O)N[C@@H](CCCNC(=N)N)C(=O)N[C@]1(C)CCCCCC/C=C\CCC[C@@](C)(C(=O)N[C@@H](CCCNC(=N)N)C(=O)N[C@@H](CCC(=O)O)C(=O)N[C@@H](CC(C)C)C(=O)N[C@H](C(=O)N[C@@H](CCC(=O)O)C(N)=O)C(C)C)NC(=O)[C@H](CCC(N)=O)NC(=O)[C@H](CC(C)C)NC(=O)[C@H](CC(C)C)NC(=O)[C@H](CCCNC(=N)N)NC(=O)[C@H](CCCNC(=N)N)NC(=O)[C@H](CC(C)C)NC1=O)C(C)C | 41.2 µM | 19.2 µM | 2.62 µM | 2.72 µM | 29.4 µM | 47.1 µM | 22.4 µM | – | > 50 µM | 8.43 µM | 11.5 µM | 1.1 µM | 8.1 µM | 1.73 µM | 11.1 µM | 9.32 µM | – | 6.16 µM | 1.19 µM | 2.66 µM
5 | COC1OC(C)C(OCc2ccccc2)C(OS(=O)(=O)c2ccc(C)cc2)C1OS(=O)(=O)c1ccc(C)cc1 (centres undefined) | > 100 µM | > 100 µM | > 100 µM | > 100 µM | > 100 µM | > 100 µM | – | – | > 100 µM | – | – | – | – | – | – | – | – | – | – | –
6 | CC1(C)OC2COC3(CNO)OC(C)(C)OC3C2O1 (centres undefined) | > 100 µM | > 100 µM | > 100 µM | > 100 µM | > 100 µM | > 100 µM | > 100 µM | > 100 µM | – | > 100 µM | – | – | – | – | – | – | – | – | – | –
7 | Cn1cc(-c2csc(-c3cn(C)c4ccccc34)n2)c2cnccc21 | 3.25 µM | 4.13 µM | 3.07 µM | 3.61 µM | – | 3.16 µM | 3.88 µM | 3.25 µM | 3.84 µM | – | 1.77 µM | 1.69 µM | – | – | 1.47 µM | 2.06 µM | 1.72 µM | 2.16 µM | 2.01 µM | 2 µM
8 | CC/C(=N\NS(=O)(=O)c1ccccc1)c1ccccc1 | > 100 µM | > 100 µM | > 100 µM | > 100 µM | > 100 µM | > 100 µM | > 100 µM | > 100 µM | – | > 100 µM | – | – | – | – | – | – | – | – | – | –
9 | c1ccc(Cn2cnc3ccc(-c4nc(-c5ccc6c(c5)ncn6C5CCCCC5)cn5ccnc45)cc32)cc1 | – | 5.8 µM | – | – | > 100 µM | 4.55 µM | 3.57 µM | – | 5.09 µM | 2.62 µM | – | – | 1.67 µM | 1.25 µM | 1.72 µM | 1.86 µM | – | 2.27 µM | – | 2.03 µM
10 | CSc1c(C)c(C)nn1-c1ccccc1 | > 100 µM | – | > 100 µM | > 100 µM | > 100 µM | > 100 µM | > 100 µM | > 100 µM | > 100 µM | – | – | – | – | – | – | – | – | – | – | –
11 | CC(=O)N(C(C)=O)C1=C2c3ccccc3N(S(=O)(=O)c3ccccc3)C2n2c(=O)n(-c3ccccc3)c(=O)n2C1 (centres undefined) | > 100 µM | 81.9 µM | 58.8 µM | 46.5 µM | – | > 100 µM | – | 35.8 µM | 39.5 µM | 73.9 µM | – | – | – | – | – | – | – | – | – | –
12 | O=C(c1ccc2ccccc2c1)c1c(C(F)(F)F)n([O-])c2ccc(Cl)cc2[n+]1=O | 3.58 µM | 2.62 µM | 2.65 µM | 3.2 µM | – | 2.55 µM | 3.11 µM | 3.08 µM | 3.02 µM | 2.03 µM | 1.87 µM | 1.36 µM | – | 0.518 µM | 1.29 µM | 1.72 µM | 1.71 µM | 1.32 µM | 1.59 µM | 1.61 µM
13 | c1ccc2nc3c(cc4ccccn43)nc2c1 | > 100 µM | > 100 µM | > 100 µM | – | > 100 µM | > 100 µM | > 100 µM | > 100 µM | > 100 µM | > 100 µM | > 100 µM | 25.8 µM | 53.1 µM | 30.9 µM | 6.25 µM | 31.4 µM | 17.4 µM | > 100 µM | – | 21.5 µM
14 | CC(CC(=O)Nc1ccc(NC(=O)CC(C)N=NC(N)=S)cc1)N=NC(N)=S (centres undefined) | > 100 µM | > 100 µM | > 100 µM | > 100 µM | > 100 µM | > 100 µM | > 100 µM | > 100 µM | – | > 100 µM | – | – | – | – | – | – | – | – | – | –
15 | CCC1=C[C@@H]2CN(C1)Cc1c([nH]c3ccccc13)[C@@](C(=O)OC)(c1cc3c(cc1OC)N(C)[C@H]1[C@@](O)(C(=O)OC)[C@H](OC(C)=O)[C@]4(CC)[C@@H]5C[C@@H]5CN5CC[C@]31[C@@H]54)C2 | 16.9 µM and 73.9 µM | – | 0.327 µM and 1.77 µM | 1.29 µM | – | 7.7 µM and 12.6 µM | 0.0112 µM and 0.0857 µM | 6.39 µM and 16.9 µM | < 0.005 µM | 0.353 µM | – | < 0.005 µM and 0.017 µM | < 0.005 µM | < 0.005 µM | – | < 0.005 µM and 0.0144 µM | < 0.005 µM | – | < 0.005 µM | < 0.005 µM
16 | O=C1c2cccnc2-c2nc(-c3ccncc3)cc3c2c1nc1ccccc13 | > 100 µM | 20 µM | 36.5 µM | 29.3 µM | > 100 µM | > 100 µM | > 100 µM | – | – | – | 31.2 µM | 14.1 µM | 5.14 µM | – | 33.2 µM | 38.5 µM | – | 7.51 µM | 14.9 µM | –
17 | C=C(CN1CCc2ccccc2C1)c1ccc(C(=O)Nc2ccccc2N)cc1 | > 20.2 µM | 6.76 µM | 6.86 µM | – | 2.03 µM | 8.8 µM | – | 3.3 µM | 3.72 µM | 15.8 µM | 2.64 µM | 1.61 µM | 0.72 µM | 3.37 µM | 2.87 µM | – | 0.821 µM | 1.38 µM | – | 0.732 µM
